US9145393B2, “Arylpyridinone ITK inhibitors for treating inflammation and cancer” (Confluence Life Sciences, Inc., priority 2014, dated 2015)
Counter-ions that a name gives are not always drawn.

Target: T1, ITK (Homo sapiens, UniProt Q08881)
T1 sequence (Q08881 1-620): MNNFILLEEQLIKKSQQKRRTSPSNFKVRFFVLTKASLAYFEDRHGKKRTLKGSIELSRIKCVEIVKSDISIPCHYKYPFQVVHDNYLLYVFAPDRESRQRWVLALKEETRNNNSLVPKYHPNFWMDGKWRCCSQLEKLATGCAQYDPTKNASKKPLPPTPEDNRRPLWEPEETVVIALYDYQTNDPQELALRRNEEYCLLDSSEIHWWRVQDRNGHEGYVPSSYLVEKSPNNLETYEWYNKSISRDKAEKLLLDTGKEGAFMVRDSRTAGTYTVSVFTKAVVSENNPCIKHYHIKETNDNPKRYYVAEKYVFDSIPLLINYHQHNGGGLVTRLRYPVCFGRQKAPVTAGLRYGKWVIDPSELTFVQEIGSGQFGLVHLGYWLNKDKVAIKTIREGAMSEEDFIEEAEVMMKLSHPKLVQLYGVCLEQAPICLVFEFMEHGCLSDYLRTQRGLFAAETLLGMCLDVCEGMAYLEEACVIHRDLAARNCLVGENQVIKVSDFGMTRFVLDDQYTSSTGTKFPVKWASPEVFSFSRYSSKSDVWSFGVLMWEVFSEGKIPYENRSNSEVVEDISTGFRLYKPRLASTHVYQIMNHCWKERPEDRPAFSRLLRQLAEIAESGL
Assay: ITK inhibitor binding potency (LanthaScreen TR-FRET competitive binding assay)
Details: pre-incubation condition not stated; read-out: ITK Inhibition IC50
Excerpt: The ability of candidate compounds to interact with ITK is quantitated by a competitive binding assay using the LanthaScreen technology developed by Life Technologies. This assay is based on the binding of a proprietary, Alexa Fluor® 647-labeled, ATP-competitive kinase inhibitor (kinase tracer-236) to the ITK expression construct in the presence of a Europium-conjugated antibody, resulting in a FRET (fluorescence resonance energy transfer) signal. Displacement of the kinase tracer by compound results in a lower emission ratio upon excitation of the Europium chelate. Candidate compounds are designed as potential irreversible inhibitors of ITK, capable of ligating to an active site cysteine residue resulting in time dependent covalent binding. The time dependent nature of irreversible inhibition is investigated by performing the binding assay with and without a pre-incubation of compound and ITK. […] The inhibitory potency of candidate compounds is measured in 20 mM HEPES pH 7.5, 10 mM MgCl2, 0.01% BSA, 0.0005% Tween-20, and 2% DMSO in the presence of 10 nM ITK, 2 nM Eu-anti-GST antibody, and 50 nM kinase tracer-236 using a 384-well plate format. Background signal is defined in the absence of ITK and uninhibited signal is defined in the presence of vehicle (2% DMSO) alone. Compounds were evaluated in an 11-point dose-response ranging from 20 uM to 0.34 nM. The binding assays are performed under two preincubation Conditions to evaluate time dependence of inhibition. For the pre-incubation assay, ITK and Eu-anti-GST antibody are pre-incubated with compound or vehicle for two hours prior to the addition of kinase tracer. The non-preincubated assay is run under Conditions where ITK and Eu-anti-GST antibody are added to a mixture of compound and kinase tracer. IC50 values of compounds are determined using a 4 parameter logistical fit of emission ratio as a function of the concentration of compound.

IC50, ≤ 1 µM:
O=C(CCl)N1CCC[C@@H](Nc2cc(-c3ccncc3)c[nH]c2=O)C1 [Example 1, (R)-5-((1-(2-Chloroacetyl)piperidin-3-yl)amino)-[3,4′-bipyridin]-6(1H)-one]
O=C(CCl)N1CC(Nc2cc(-c3ccncc3)c[nH]c2=O)C1 [Example 4, 5-((1-(2-Chloroacetyl)azetidin-3-yl)amino)-[3,4′-bipyridin]-6(1H)-one]
C=CC(=O)N1CC(Nc2cc(-c3ccncc3)c[nH]c2=O)C1 [Example 5, 5-((1-Acryloylazetidin-3-yl)amino)-[3,4′-bipyridin]-6(1H)-one]
C=CC(=O)N1CC(Nc2cc(-c3ccnc(C)c3)c[nH]c2=O)C1 [Example 7, 5-((1-acryloylazetidin-3-yl)amino)-2′-methyl-[3,4′-bipyridin]-6(1H)-one]
C=CC(=O)N1CC(Nc2cc(-c3cncc(OC)n3)c[nH]c2=O)C1 [Example 8, 3-((1-acryloylazetidin-3-yl)amino)-5-(6-methoxypyrazin-2-yl) pyridin-2(1H)-one]
C=CC(=O)N1CC(Nc2cc(-c3ccnc(NC)c3)c[nH]c2=O)C1 [Example 9, 5-((1-acryloylazetidin-3-yl)amino)-2′-(methylamino)-[3,4′-bipyridin]-6(1H)-one]
C=CC(=O)N1CC(Nc2cc(-c3ccnc(NC)n3)c[nH]c2=O)C1 [Example 10, 3-((1-acryloylazetidin-3-yl)amino)-5-(2-(methylamino)pyrimidin-4-yl)pyridin-2(1H)-one]
C=CC(=O)N1CC(Nc2cc(-c3cncc(NC)n3)c[nH]c2=O)C1 [Example 11, 3-((1-acryloylazetidin-3-yl)amino)-5-(6-(methylamino)pyrazin-2-yl) pyridin-2(1H)-one]
CNC/C=C/C(=O)N1CC(Nc2cc(-c3ccncc3)c[nH]c2=O)C1 [Example 13, (E)-5-((1-(4-(methylamino)but-2-enoyl)azetidin-3-yl)amino)-[3,4′-bipyridin]-6(1H)-one]
C=CC(=O)N1CC(Nc2cc(-c3ccnc(C(=O)Nc4ccc(C(C)C)c(C)c4)c3)c[nH]c2=O)C1 [Example 16, 5-((1-Acryloylazetidin-3-yl)amino)-N-(4-isopropyl-3-methylphenyl)-6-oxo-1,6-dihydro-[3,4′-bipyridine]-2′-carboxamide hydrochloride]
CC/C=C/C(=O)N1CC(Nc2cc(-c3ccnc(NC)c3)c[nH]c2=O)C1 [Example 18, (E)-2′-(Methylamino)-5-((1-(pent-2-enoyl)azetidin-3-yl)amino)-[3,4′-bipyridin]-6(1H)-one]
CNc1cc(-c2c[nH]c(=O)c(NC3CN(C(=O)/C=C/CN(C)C)C3)c2)ccn1 [Example 19, (E)-5-((1-(4-(Dimethylamino)but-2-enoyl)azetidin-3-yl)amino)-2′-(methylamino)-[3,4′-bipyridin]-6(1H)-one]
CNc1cc(-c2c[nH]c(=O)c(NC3CN(C(=O)/C=C/CCOc4ccccc4)C3)c2)ccn1 [Example 20, (E)-2′-(Methylamino)-5-((1-(5-phenoxypent-2-enoyl)azetidin-3-yl)amino)-[3,4′-bipyridin]-6(1H)-one]

IC50, > 1 µM:
C=CC(=O)N1CCC[C@@H](Nc2cc(-c3ccncc3)c[nH]c2=O)C1 [Example 2, (R)-5-((1-Acryloylpiperidin-3-yl)amino)-[3,4′-bipyridin]-6(1H)-one]
C=CC(=O)N1CC[C@@H](Nc2cc(-c3ccncc3)c[nH]c2=O)C1 [Example 3, (R)-5-((1-Acryloylpyrrolidin-3-yl)amino)-[3,4′-bipyridin]-6(1H)-one]
C/C=C/C(=O)N1CC(Nc2cc(-c3ccncc3)c[nH]c2=O)C1 [Example 6, (E)-5-((1-(But-2-enoyl)azetidin-3-yl)amino)-[3,4′-bipyridin]-6(1H)-one]
CNC(=O)/C=C/C(=O)N1CC(Nc2cc(-c3ccncc3)c[nH]c2=O)C1 [Example 12, (E)-N-methyl-4-oxo-4-(3-((6-oxo-1,6-dihydro-[3,4′-bipyridin]-5-yl)amino)azetidin-l-yl)but-2-enamide]
CNc1cc(-c2c[nH]c(=O)c(NC3CN(C(=O)/C=C/c4ccccc4)C3)c2)ccn1 [Example 14, (E)-5-((1-Cinnamoylazetidin-3-yl)amino)-2′-(methylamino)-[3,4′-bipyridin]-6(1H)-one]
CNc1cc(-c2c[nH]c(=O)c(NC3CN(C(=O)/C=C/Cc4ccccc4)C3)c2)ccn1 [Example 15, (E)-2′-(Methylamino)-5-((1-(4-phenylbut-2-enoyl)azetidin-3-yl)amino)-[3,4′-bipyridin]-6(1H)-one]
Cc1cc(NC(=O)c2cc(-c3c[nH]c(=O)c(NC4CN(C(=O)CCl)C4)c3)ccn2)ccc1C(C)C [Example 17, 5-((1-(2-Chloroacetyl)azetidin-3-yl)amino)-N-(4-isopropyl-3-methylphenyl)-6-oxo-1,6-dihydro-[3,4′-bipyridine]-2′-carboxamide formate]

Test system: ITK mediated IL-2 release in Jurkat cells
Assay: ITK IL-2 release assay in CD3/CD28-stimulated Jurkat cells
Format: cell-based
Details: Homo sapiens, CD3/CD28 Dynabeads stimulation, overnight, read-out: IL-2 Production Inhibition IC50
Experimental: This assay was based on the ability of a compound to inhibit ITK mediated IL-2 release. Jurkat cells were placed in wells of a 96-well plate at 500,000 per well in 120 μL medium (same as above). Compounds were added as 15 μL per well of 10× working stock solutions in medium with 1% DMSO (or medium with 1% DMSO for Controls) and placed in a 37° C. incubator for 2 hours. Stimulation used CD3/CD28 Dynabeads to activate the T cell receptor and mimic antigen-presenting cells. Beads were added at a ratio of 1 bead per cell, in 15 μL medium (or medium alone for unstimulated Control). After overnight incubation, the plates were centrifuged at 290×g for 5 min, then 100 μL per well of supernatant medium removed for IL-2 cytokine assay. To determine cell viability, to the remaining well Contents 50 μL of CellTiter-Glo reagent was added and luminescence determined. The IL-2 cytokine assay utilized an electochemiluminescence-based ELISA.

IC50, ≤ 1 µM:
C=CC(=O)N1CC(Nc2cc(-c3ccnc(NC)c3)c[nH]c2=O)C1 [Example 9, 5-((1-acryloylazetidin-3-yl)amino)-2′-(methylamino)-[3,4′-bipyridin]-6(1H)-one]
C=CC(=O)N1CC(Nc2cc(-c3ccnc(NC)n3)c[nH]c2=O)C1 [Example 10, 3-((1-acryloylazetidin-3-yl)amino)-5-(2-(methylamino)pyrimidin-4-yl)pyridin-2(1H)-one]
C=CC(=O)N1CC(Nc2cc(-c3cncc(NC)n3)c[nH]c2=O)C1 [Example 11, 3-((1-acryloylazetidin-3-yl)amino)-5-(6-(methylamino)pyrazin-2-yl) pyridin-2(1H)-one]
